US11643393B2, “Integrin antagonists” (The General Hospital Corporation, priority 2018, dated 2023)
“Also recorded” adds a separate entry of the source. Where two headings read alike, the source gives them in different places. Positions of bridges follow the written chain, without caps; N, C: chain ends. Non-standard residues stand in square brackets, D forms with d. Residues, ends and D or L forms follow the SMILES beside them. hArg = N=C(N)NCCCC[C@H](N)C(=O)O; Mpa = O=C(O)CCS

Key:
[1] = tested on: human platelets; assay: Agonist-induced platelet aggregation in whole human blood (impedance, Chrono-Log 700); type: cell-based; conditions: for IC50: Homo sapiens, Platelet
Protocol: (§1) Platelet aggregation and ATP secretion in whole blood were performed in a Chrono-Log model 700 two-channel lumi-aggregation system following the manufacturer's instructions. Blood was drawn directly into 3.2% sodium citrate from healthy volunteers, and blood was used within 3 hours. None of the subjects were taking any medications for at least 10 days prior. For impedance aggregation measurements, 0.5 mL of blood was mixed with 0.5 mL physiologic saline supplemented with inhibitors and incubated at 37° C. for 5 minutes without stirring. Measurements were performed with stirring at 1,200 rpm at 37° C. Values for each data point represent impedance measurements following application of agonist integrated over 5 minutes. Data points for an individual dose curve were serially collected from a single draw and analyzed with SigmaPlot (Systat Software, San Jose, Calif.) using a least-square fit to a logistic curve and the IC50 value determined from the fitted parameter. ATP secretion proceeded similarly except that 0.45 mL of whole blood were added to 0.45 mL of saline supplemented with various concentrations of Hr10 or eptifibatide to produce the desired concentration at 1.0 mL. Following incubation for 5 minutes at 37° C., 100 μL of Chrono-lume reagent was added and aggregation initiated. The luminescence signal was quantified with a non-aggregated sample supplemented with an ATP standard.
Platelet aggregation was measured in whole blood by impedance increase with a Chrono-log model 700 according to the manufacturer's protocol. Citrated whole blood was diluted with an equal volume of physiologic saline (Sigma) and incubated for 5 min at 37° C. without stirring. Inhibitors were added to final concentration and the cuvette stirred at 1,200 rpm. Following establishment of stable baseline, ADP (20 μM) was added and tracings recorded for 6 min. The extent of aggregation was determined as the integrated impedance over 5 min.

[2] = target: T1, αIIbβ3 (Homo sapiens, UniProt P05106+P08514); assay: Displacement of labeled Hr10 binding to inactive or PT-25-activated αIIbβ3-K562 cells (FACS); set-up: expressed in transfected cells; host or cells: K562; conditions: for IC50: Alexa488-labeled Hr10, 1 mM Mg2+ and Ca2+
Protocol: […] Cells were washed, fixed in 2% paraformaldehyde and analyzed by flow cytometry. Ligand binding was expressed as […] of cells in the absence of competitor ligands. Mean and SD from three independent experiments were calculated, and compared using Student's t-test.

[3] = target: T1, αIIbβ3; assay: Displacement of labeled fibrinogen binding to αIIbβ3-K562 cells (flow cytometry); set-up: expressed in transfected cells; host or cells: K562
Protocol: For ligand binding competition studies, 100 μL of PT-25-activated αIIbpβ3-K562 (1×10^6) were incubated for 30 minutes at RT with serially diluted concentrations of Hr10, hFN10, or eptifibatide in the presence of 0.5 μM Alexa647-conjugated FB. Cells were washed, fixed in 2% paraformaldehyde and analyzed by flow cytometry. Ligand binding was expressed as […] of cells in the absence of competitor ligands. Mean and SD from three independent experiments were calculated, and compared using Student's t-test.

[4] = target: T1, αIIbβ3; assay: Binding of conformation-sensitive mAbs AP5 / LIBS-1 to human platelets; type: cell-based; conditions: for induction of AP5 epitope expression: tirofiban 150 nM
[5] = tested on: human platelet-rich plasma (PRP); assay: Thrombin-induced clot retraction; type: cell-based; conditions: for effect on clot retraction induced by α-thrombin: FIG. 5, tirofiban 1.5 μM, m-tirofiban 15 μM, α-thrombin 0.5 unit/mL; for kinetics of thrombin-induced clot retraction: FIG. 6E, three experiments, vs buffer control
Protocol: 750 μL of Tyrode's buffer supplemented with inhibitor was mixed in a glass culture tube with 200 μL of PRP and 5 μL red blood cells. Clotting was initiated by addition of 50 μL thrombin at 10 units/ml in saline and a sealed Pasteur pipette secured in the tube center. Digital photographs of the experiment were taken at 15-minute intervals over 2 hours. Images were analyzed with ImageJ software to determine the area occupied by the clot and plasma. Plots of the relative areas and linear regressions were performed with SigmaPlot (Systat Software, San Jose, Calif.).
No ligands were added to the control (FIG. 5C) tube. Photographs were taken immediately after thrombin addition (FIG. 5A) and at the end of the reaction (FIG. 5B). Clot retraction around the central glass rod placed in each glass test tube before thrombin addition is shown. 5 μL of red blood cells were added per 1 mL reaction to enhance the color contrast for photography.
Clot retraction normally helps secure hemostasis in vivo as evidenced by increased bleeding in mice with impaired clot retraction (see e.g., Leon et al, Blood 110, 3183-3191, doi: 10.1182/blood-2007-03-080184 (2007)), or in recipients of any of the three anti-αIIbβ3 drugs (see e.g., Tutwiler et al, Biophys. J. 112, 714-723 (2017); Osdoit et al, J. Biol. Chem. 276, 6703-6710 (2001); Haling et al, Blood 117, 1719-1722 (2011)). The effects of Hr10 and eptifibatide on thrombin-induced clot retraction in fresh human platelet-rich plasma (PRP) (see e.g., Tucker et al, Methods Mol. Biol. 788, 101-107 (2012)) were compared. The kinetics of clot retraction were determined from quantification of serial images of the reaction acquired every 15 minutes for the 2-hour duration of the assay. […] Thrombolysis, 15, 71-80 (2003).

[6] = tested on: vWF^RH/RH NSG mice infused with human platelets; assay: Cremaster laser-induced arteriolar injury thrombosis in humanized mice; type: in vivo; conditions: eptifibatide 5 μg/mouse, Hr10 60 μg/mouse (equimolar), infused 5 min prior to injury; FIG. 13A
Protocol: Intravital microscopy was performed as previously described (see e.g., Celi et al, J. Thromb. Haemost. 1, 60-68 (2003); and Neyman et al, Blood, 112, 1101-1108 (2008)). vWF^RH/RHNSG male mice were studied after being anesthetized using sodium pentobarbital (80 mg/kg) injected intraperitoneally. Mice were maintained under anesthesia with the same anesthetic delivered via a catheterized jugular vein at 5 mg/mL throughout the experiment. The cremaster muscle was surgically exteriorized and continuously superfused with a physiological buffer (PBS containing 0.9 mM CaCl2 and 0.49 mM MgCl2) maintained at 37° C. throughout the entire experiment and equilibrated with a mixture of 95% N2 and 5% CO2. Human platelets, 400 million per mouse, were labeled with mouse anti-human CD41 F(ab′)2 (BD Biosciences) conjugated to Alexa Fluor-488 and infused into the jugular vein, followed by Alexa Fluor-647 rat anti-mouse CD41 F(ab′)2 (Thermo Fisher) to detect endogenous mouse platelets (see e.g., Fuentes et al, J. Clin. Invest. 126, 483-494 (2016)). Vascular injury was induced with an SRS NL100 pulsed nitrogen dye laser (440 nm) focused on the vessel wall through the microscope objective. […] Intensity of the fluorescent signal was used to measure incorporated platelets (see e.g., Neyman et al, Blood 112, 1101-1108 (2008). Eight injuries were made in each of four mice in each group.

[7] = tested on: human platelets; assay: ADP-induced ATP secretion from dense granules in whole blood; type: cell-based; conditions: 1.5 μM; ADP 20 μM; FIG. 11E
Protocol: as §1

[8] = tested on: human platelets; assay: ADP-induced surface expression of CD62P and CD63 on platelets; type: cell-based; conditions: 1.5 μM; ADP 20 μM; FIG. 11F
Protocol: αVβ3-K562 cells or transiently transfected HEK293T (0.5×10^6 in 100 μL WB) were incubated in the absence or presence of unlabeled Hr10 or eptifibatide, each at 1.5 μM, for 20 min at RT. Alexa647-labeled AP5 Fab or unlabeled anti-LIBS-1 (each to 10 μg/mL) were added, and cells incubated for an additional 30 min before washing. Alexa647-labeled AP3 was used for normalization of integrin expression. APC-labeled goat anti-mouse Fc-specific antibody was added to anti-LIBS-1-bound cells for an additional 30 min at 4° C., cells washed and processed for flow cytometry. Binding of anti-CD62 and anti-CD63 mAbs to platelets was performed by incubating (20 min, RT) 100 μL of ligand-pretreated 3.2% sodium citrate whole blood with either Alexa488-labeled mAb (at 10 μg/mL) in the presence of 10 μg/mL Alexa647-labeled anti-CD42b. Cells were fixed in 2% paraformaldehyde and CD62 and CD63 expression was analyzed by flow cytometry in the CD42b positive population.

[9] = target: T2, αIIbβ3 on resting platelets (Homo sapiens, UniProt P05106+P08514); conditions: Schror & Weber 2003, read-out: affinity of eptifibatide to αIIbβ3 on resting platelets (kD); cited from earlier work
T2 construct: host or cells: resting platelets

[10] = FIG. 6D, M-tirofiban 1.5 μM, human platelets

T1 sequence (P08514 32-887 limits assumed): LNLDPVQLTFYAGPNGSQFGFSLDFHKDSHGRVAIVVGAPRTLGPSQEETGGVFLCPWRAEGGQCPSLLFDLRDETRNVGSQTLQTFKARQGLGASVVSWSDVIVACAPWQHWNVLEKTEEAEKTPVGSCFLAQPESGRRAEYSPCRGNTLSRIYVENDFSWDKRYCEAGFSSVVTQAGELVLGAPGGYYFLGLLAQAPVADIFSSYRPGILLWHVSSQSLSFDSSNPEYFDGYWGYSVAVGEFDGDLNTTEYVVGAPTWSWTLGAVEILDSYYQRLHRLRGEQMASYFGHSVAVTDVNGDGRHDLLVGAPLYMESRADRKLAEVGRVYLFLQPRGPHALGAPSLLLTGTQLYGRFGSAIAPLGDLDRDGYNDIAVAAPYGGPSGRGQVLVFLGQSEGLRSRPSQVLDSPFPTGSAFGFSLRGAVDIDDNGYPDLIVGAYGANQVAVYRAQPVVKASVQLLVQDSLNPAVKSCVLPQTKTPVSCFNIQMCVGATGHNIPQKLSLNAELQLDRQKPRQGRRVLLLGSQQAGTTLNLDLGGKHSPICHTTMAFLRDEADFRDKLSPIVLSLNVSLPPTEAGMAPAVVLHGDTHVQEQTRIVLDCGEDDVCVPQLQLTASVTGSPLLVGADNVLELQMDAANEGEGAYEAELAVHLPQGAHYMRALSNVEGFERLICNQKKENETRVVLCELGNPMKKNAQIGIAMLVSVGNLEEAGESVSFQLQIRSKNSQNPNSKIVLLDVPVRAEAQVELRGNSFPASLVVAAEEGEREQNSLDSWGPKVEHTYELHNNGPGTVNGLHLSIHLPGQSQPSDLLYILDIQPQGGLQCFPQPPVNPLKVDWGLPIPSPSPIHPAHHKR
T1 sequence (P08514 891-1039 partner limits assumed): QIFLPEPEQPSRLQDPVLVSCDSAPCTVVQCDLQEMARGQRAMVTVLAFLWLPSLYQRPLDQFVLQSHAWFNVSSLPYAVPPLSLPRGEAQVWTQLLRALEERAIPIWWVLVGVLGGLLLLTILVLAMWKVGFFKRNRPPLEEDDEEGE
T1 sequence (P05106 27-788): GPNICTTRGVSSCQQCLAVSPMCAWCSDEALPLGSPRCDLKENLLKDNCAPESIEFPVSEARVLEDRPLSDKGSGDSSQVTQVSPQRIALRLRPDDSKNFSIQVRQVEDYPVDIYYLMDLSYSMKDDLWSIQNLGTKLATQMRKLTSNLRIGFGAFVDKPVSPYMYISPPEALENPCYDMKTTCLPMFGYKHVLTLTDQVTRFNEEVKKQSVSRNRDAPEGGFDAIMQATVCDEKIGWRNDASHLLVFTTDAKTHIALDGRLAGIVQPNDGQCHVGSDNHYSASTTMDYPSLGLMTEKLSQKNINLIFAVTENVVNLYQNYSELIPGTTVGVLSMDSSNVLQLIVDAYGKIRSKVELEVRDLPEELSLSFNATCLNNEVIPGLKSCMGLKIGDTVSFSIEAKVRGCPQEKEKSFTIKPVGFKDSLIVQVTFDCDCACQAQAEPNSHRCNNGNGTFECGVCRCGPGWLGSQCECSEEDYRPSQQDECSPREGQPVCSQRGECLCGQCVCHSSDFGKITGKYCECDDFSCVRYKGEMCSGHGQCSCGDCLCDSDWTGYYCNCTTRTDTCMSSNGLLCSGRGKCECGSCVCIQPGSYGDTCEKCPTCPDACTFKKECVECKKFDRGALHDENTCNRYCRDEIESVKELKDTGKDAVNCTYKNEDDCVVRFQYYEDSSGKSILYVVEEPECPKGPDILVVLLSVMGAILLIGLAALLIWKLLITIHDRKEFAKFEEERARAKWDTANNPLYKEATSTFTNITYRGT
T2 sequence (P08514 32-887 limits assumed): as the sequence (P08514 32-887 limits assumed) above
T2 sequence (P08514 891-1039 partner limits assumed): as the sequence (P08514 891-1039 partner limits assumed) above
T2 sequence (P05106 27-788): as the sequence (P05106 27-788) above

Compound: O=C(N[C@@H](Cc1ccc(OCCCCC2CCNCC2)cc1)C(=O)O)c1nc2ccccc2o1 [M-tirofiban, OC(═O)[C@H](CC1═CC═C(OCCCCC2CCNCC2)C═C1)NC(═O)C1═NC2═C(O1)C ═CC═C2]
- IC50 ([1]; read-out: IC50, human platelet aggregation induced by ADP): 18.5 ± 5.4 nM
- reduction in affinity of M-tirofiban vs. tirofiban ([1]; from fibrinogen displacement and platelet aggregation assays): ~10 fold
- binding affinity to inactive vs. active αIIbβ3 ([2]; FIGS. 6F-6G, 12C): equivalent binding affinities to inactive and active
- IC50 ([2]; active αIIbβ3, read-out: IC50, displacement of labeled Hr10 binding to mAb PT-25-activated αIIbβ3-K562): 247 ± 29.3 nM
- IC50 ([2]; inactive αIIbβ3, read-out: IC50, displacement of labeled Hr10 binding to inactive αIIbβ3-K562): 257 ± 88 nM
- IC50 ([3]; FIG. 6B, mean±S.E., n=4 experiments, read-out: IC50, displacement of labeled fibrinogen bound to preactivated αIIbβ3-K562): 30.9 ± 3.3 nM
- activating conformational changes in αIIbβ3 reported by AP5 binding ([4]; FIG. 4, human platelets in PRP, saturating amounts, absence or presence of 20 μM ADP): did not induce the activating shape-shifts
- effect on ADP-induced AP5 expression ([4]; FIG. 6D, M-tirofiban 1.5 μM, ADP 5 μM added before or after): suppressed ADP-induced AP5 expression
- induction of AP5 epitope expression [4, 10]: did not induce AP5 expression; also recorded: No significant differences were found between B and M
- effect on clot retraction induced by α-thrombin [5]: reduced clot retraction minimally
- kinetics of thrombin-induced clot retraction [5]: did not; also recorded: not different between buffer control (contr.) and M-tirofiban

Compound: N=C(N)NCCCC[C@@H]1NC(=O)CCSSC[C@@H](C(N)=O)NC(=O)[C@@H]2CCCN2C(=O)[C@H](Cc2c[nH]c3ccccc23)NC(=O)[C@H](CC(=O)O)NC(=O)CNC1=O [eptifibatide] ([Mpa][hArg]GDWPC-NH2; disulfide 1-7)
- nascent occlusive thrombus formation at sites of laser-induced arteriolar injury [6]: completely preventing nascent occlusive thrombus formation
- inhibition of ADP-induced ATP secretion from dense granules in whole blood [7]: 60±200%
- ADP-induced secretion from platelet α-granules (CD62P expression) and lysosomes (CD63 expression) [8]: did not significantly alter
- IC50 ([3]; FIG. 8C, preactivated αIIbβ3-K562, mean S.E., n=3, read-out: IC50, inhibition of binding of Alexa647-labeled soluble FB to activated αIIbβ3): 73.2 ± 7 nM
- Kd [9]: 120 nM
- conformational changes in αIIbβ3 reported by binding of mAbs AP5 and LIBS-1 ([4]; FIG. 8D, 1.5 μM, human platelets, absence or presence of 5 μM ADP): induced conformational changes in αIIbβ3
- kinetics of thrombin-induced clot retraction vs. buffer ([5]; FIGS. 12A-12B, fresh human PRP, 2-hour assay): clot retraction was significantly reduced vs buffer; also recorded: significantly blocked clot retraction

Compound: CCCCS(=O)(=O)N[C@@H](Cc1ccc(OCCCCC2CCNCC2)cc1)C(=O)O [tirofiban]
- IC50 ([1]; FIG. 6C, ADP 20 μM, mean±S.E., n=5, three donors, read-out: IC50, human platelet aggregation induced by ADP): 1.41 ± 0.23 nM
- IC50 ([1]; summary of FIGS. 6B-6C, ADP 20 μM, read-out: Prevention of ADP-induced human platelet aggregation, concentration range): 1.5 to 2 nM
- induction of AP5 epitope expression [4, 10]: induced expression of the AP5 epitope
- effect on clot retraction induced by α-thrombin [5]: completely blocked clot retraction
- kinetics of thrombin-induced clot retraction [5]: effectively blocked thrombin-induced clot retraction
